From patent publication US12281363B2, “Methods for detecting antiviral-drug resistant virus” (Secretary of State for Health and Social Care, priority 2018, dated 2025)
Read-outs that look alike come from different tables or passages of the source.

Tested on: HSV-2
Experiment: Plaque reduction assay, HSV-2 clinical isolates on Vero cells
Format: cell-based
Conditions: Human alphaherpesvirus 2, Vero
Description: Viral isolates were used to infect a sub-confluent monolayer of Vero cells at a concentration of 75 or 50 plaque forming units (PFU) per well for HSV-1 and HSV-2, respectively. […] CMC medium typically used to create a semisolid interface and prevents indiscrimate viral spreading. Other materials (e.g. agar) may also be used to create this interface.
Cells were fixed with 10% formalin and stained with crystal violet before enumeration of the plaques (microscopic observation or use of fluorescent antibodies for detection is also suitable). The data obtained from these experiments were then expressed as percent inhibition of viral infectivity relative to the no drug control.
Definitions of phenotypic drug susceptibility classification as sensitive or resistant were as follows: ACV, <3 μM or >40 μM; PCV, <10 μM or >40 μM; CDV, <24 μM or >30 μM; FOS, <250 μM or >400 μM; and ACV, <6.5 μM or >40 μM; PCV, <38 μM or >40 μM; FOS, <250 μM or >400 μM for HSV-1 and HSV-2, respectively. Any IC50 values falling in between these sensitive and resistant cut-offs were reported as intermediate resistance.
The phenotype (i.e. reactivity to a drug) of the virus was characterised by the plaque reduction assay as described above. The present inventors have characterised the resistance-causing phenotype of a large number of TK and DNA pol mutations.

Nc1nc2c(ncn2CCC(CO)CO)c(=O)[nH]1 [Penciclovir, penciclovir]
IC50 (isolate HPG001, HSV-2 TK A125T (373G>A), read-out: Drug susceptibility (IC50 value)): 8.2 µM
IC50 (isolate HPG001, HSV-2 TK A125T (373G>A), read-out: Drug susceptibility Penciclovir (PCV)): < 38 µM
IC50 (isolate HPG001, HSV-2 pol H714R (2141A>G), read-out: Drug susceptibility (IC50 value)): 8.2 µM
IC50 (isolate HPG001, HSV-2 pol H714R (2141A>G), read-out: Drug susceptibility Penciclovir (PCV)): < 38 µM
IC50 (isolate HPG004, HSV-2 pol M494T (1481T>C), also pol S729N, read-out: Drug susceptibility (IC50 value)): > 160 µM
IC50 (isolate HPG004, HSV-2 pol M494T (1481T>C), also pol S729N, read-out: Drug susceptibility Penciclovir (PCV)): > 40 µM
IC50 (isolate HPG007, HSV-2 pol R628G (1882C>G), read-out: Drug susceptibility (IC50 value)): > 160 µM
IC50 (isolate HPG007, HSV-2 pol R628G (1882C>G), read-out: Drug susceptibility Penciclovir (PCV)): > 40 µM
IC50 (isolate HPG017, HSV-2 TK Q186H (558G>T), read-out: Drug susceptibility (IC50 value)): 64.7 µM
IC50 (isolate HPG017, HSV-2 TK Q186H (558G>T), read-out: Drug susceptibility Penciclovir (PCV)): > 40 µM
IC50 (isolate HPG022, HSV-2 TK E213D (639A>C), read-out: Drug susceptibility (IC50 value)): 26.9 µM
IC50 (isolate HPG022, HSV-2 TK E213D (639A>C), read-out: Drug susceptibility Penciclovir (PCV)): < 38 µM
IC50 (isolate HPG022, HSV-2 pol D174Y (520G>T), read-out: Drug susceptibility (IC50 value)): 26.9 µM
IC50 (isolate HPG022, HSV-2 pol D174Y (520G>T), read-out: Drug susceptibility Penciclovir (PCV)): < 38 µM
IC50 (isolate HPG023, HSV-2 TK Q186H (558G>T), read-out: Drug susceptibility (IC50 value)): 31.1 µM
IC50 (isolate HPG023, HSV-2 TK Q186H (558G>T), read-out: Drug susceptibility Penciclovir (PCV)): < 38 µM
IC50 (isolate HPG024, HSV-2 TK E213D (639A>C), read-out: Drug susceptibility (IC50 value)): 9.08 µM
IC50 (isolate HPG024, HSV-2 TK E213D (639A>C), read-out: Drug susceptibility Penciclovir (PCV)): < 38 µM
IC50 (isolate HPG028, HSV-2 TK 98stop or A94fs (276delG, 278delG, 279delG, or 280delG), read-out: Drug susceptibility (IC50 value)): > 160 µM
IC50 (isolate HPG028, HSV-2 TK 98stop or A94fs (276delG, 278delG, 279delG, or 280delG), read-out: Drug susceptibility Penciclovir (PCV)): > 40 µM
IC50 (isolate HPG028, HSV-2 pol E776Q (2326G>C), also TK deletion (G) nt 276-280, read-out: Drug susceptibility (IC50 value)): > 160 µM
IC50 (isolate HPG028, HSV-2 pol E776Q (2326G>C), also TK deletion (G) nt 276-280, read-out: Drug susceptibility Penciclovir (PCV)): > 40 µM
IC50 (isolate HPG028, HSV-2 pol R775C, R775W (2323C>T; 2325C>G), also TK deletion (G) nt 276-280, read-out: Drug susceptibility (IC50 value)): > 160 µM
IC50 (isolate HPG028, HSV-2 pol R775C, R775W (2323C>T; 2325C>G), also TK deletion (G) nt 276-280, read-out: Drug susceptibility Penciclovir (PCV)): > 40 µM
IC50 (isolate HPG030, HSV-2 TK Q90stop (268C>T), read-out: Drug susceptibility (IC50 value)): > 160 µM
IC50 (isolate HPG030, HSV-2 TK Q90stop (268C>T), read-out: Drug susceptibility Penciclovir (PCV)): > 40 µM
IC50 (isolate HPG030, HSV-2 pol E761K (2281G>A), also TK Q90stop, read-out: Drug susceptibility (IC50 value)): > 160 µM
IC50 (isolate HPG030, HSV-2 pol E761K (2281G>A), also TK Q90stop, read-out: Drug susceptibility Penciclovir (PCV)): > 40 µM
IC50 (isolate HPG034, HSV-2 TK L313S (938A>C), read-out: Drug susceptibility Penciclovir (PCV)): > 40 µM
IC50 (isolate HPG036, HSV-2 TK E84K (250G>A), read-out: Drug susceptibility (IC50 value)): > 160 µM
IC50 (isolate HPG036, HSV-2 TK E84K (250G>A), read-out: Drug susceptibility Penciclovir (PCV)): > 40 µM
IC50 (isolate HPG038, HSV-2 TK R34C (100C>T), read-out: Drug susceptibility (IC50 value)): 9.64 µM
IC50 (isolate HPG038, HSV-2 TK R34C (100C>T), read-out: Drug susceptibility Penciclovir (PCV)): < 38 µM
IC50 (isolate HPG044, HSV-2 TK M86L (256A>C), read-out: Drug susceptibility (IC50 value)): > 160 µM
IC50 (isolate HPG044, HSV-2 TK M86L (256A>C), read-out: Drug susceptibility Penciclovir (PCV)): > 40 µM
IC50 (isolate HPG048, HSV-2 TK Q90stop (268C>T), read-out: Drug susceptibility (IC50 value)): > 160 µM
IC50 (isolate HPG048, HSV-2 TK Q90stop (268C>T), read-out: Drug susceptibility Penciclovir (PCV)): > 40 µM
IC50 (isolate HPG048, HSV-2 pol E761K (2281G>A), also TK Q90stop, read-out: Drug susceptibility (IC50 value)): > 160 µM
IC50 (isolate HPG048, HSV-2 pol E761K (2281G>A), also TK Q90stop, read-out: Drug susceptibility Penciclovir (PCV)): > 40 µM
IC50 (isolate HPG057, HSV-2 TK 98stop or A94fs (276delG, 278delG, 279delG, or 280delG), read-out: Drug susceptibility (IC50 value)): > 160 µM
IC50 (isolate HPG057, HSV-2 TK 98stop or A94fs (276delG, 278delG, 279delG, or 280delG), read-out: Drug susceptibility Penciclovir (PCV)): > 40 µM
IC50 (isolate HPG058, HSV-2 TK 183stop or P154fs (458delC, 459delC, 460delC, or 461delC), read-out: Drug susceptibility (IC50 value)): > 160 µM
IC50 (isolate HPG058, HSV-2 TK 183stop or P154fs (458delC, 459delC, 460delC, or 461delC), read-out: Drug susceptibility Penciclovir (PCV)): > 40 µM
IC50 (read-out: Drug susceptibility (IC50 value), isolate HPG034, HSV-2 TK L313S (938A>C)): > 160 µM
IC50 (read-out: Drug susceptibility (IC50 value), isolate HPG056, HSV-2 pol M447L (1339A>C)): 8.61 µM
IC50 (read-out: Drug susceptibility Penciclovir (PCV), isolate HPG056, HSV-2 pol M447L (1339A>C)): < 38 µM
